# ChEMBL document CHEMBL1909046, “DrugMatrix in vitro pharmacology data”
# How the values were obtained:
# [1] = target: T1, Type-2 angiotensin II receptor (Homo sapiens, UniProt P50052); type: cell-based; settings: cho-k1; note: in other assays of this panel Not Active means under 50% inhibition at 10 µM
# T1 sequence (P50052 whole entry): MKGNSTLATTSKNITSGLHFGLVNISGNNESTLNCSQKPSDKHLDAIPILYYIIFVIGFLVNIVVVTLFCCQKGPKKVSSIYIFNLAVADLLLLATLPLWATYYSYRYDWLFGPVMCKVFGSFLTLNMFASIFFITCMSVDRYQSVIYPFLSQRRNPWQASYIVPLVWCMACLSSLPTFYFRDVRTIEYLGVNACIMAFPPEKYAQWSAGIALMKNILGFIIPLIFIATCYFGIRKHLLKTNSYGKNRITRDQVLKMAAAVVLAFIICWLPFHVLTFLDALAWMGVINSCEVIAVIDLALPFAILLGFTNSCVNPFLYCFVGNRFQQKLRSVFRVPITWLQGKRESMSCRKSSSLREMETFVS
# D(4) dopamine receptor = target: T2, D(4) dopamine receptor (Homo sapiens, UniProt P21917); test: DRUGMATRIX: Dopamine D4.2 radioligand binding (ligand: [3H] Spiperone); type: cell membranes, CHO-K1, Membrane; settings: Not Active = under 50% inhibition at 10 µM
# T2 sequence (P21917 whole entry): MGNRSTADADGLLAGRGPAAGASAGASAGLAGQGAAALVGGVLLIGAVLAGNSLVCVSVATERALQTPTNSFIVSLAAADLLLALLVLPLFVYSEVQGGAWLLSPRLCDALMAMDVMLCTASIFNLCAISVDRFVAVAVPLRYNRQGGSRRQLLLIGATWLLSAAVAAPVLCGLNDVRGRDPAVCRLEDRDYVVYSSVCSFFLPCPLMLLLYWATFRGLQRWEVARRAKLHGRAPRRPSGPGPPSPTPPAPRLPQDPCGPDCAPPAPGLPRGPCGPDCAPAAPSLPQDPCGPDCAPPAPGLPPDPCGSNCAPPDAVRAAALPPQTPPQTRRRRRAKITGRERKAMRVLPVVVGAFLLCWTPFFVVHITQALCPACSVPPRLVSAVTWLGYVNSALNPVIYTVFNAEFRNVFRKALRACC
# [2] = DRUGMATRIX: GABAA, Flunitrazepam, Central radioligand binding (ligand: [3H] Flunitrazepam); type: cell membranes, Rattus norvegicus, Wistar, Brain, Membrane; settings: Not Active = under 50% inhibition at 10 µM
# Leukotriene C4 synthase = target: T3, Leukotriene C4 synthase (Cavia porcellus, UniProt A6XA80); test: biochemical; type: tissue-based, Lung;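 note: enzyme inhibition assay of leukotriene C4 synthase, using LTA4 as the substrate; in other assays of this panel Not Active means under 50% inhibition at 10 µM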
# T3 sequence (A6XA80 whole entry): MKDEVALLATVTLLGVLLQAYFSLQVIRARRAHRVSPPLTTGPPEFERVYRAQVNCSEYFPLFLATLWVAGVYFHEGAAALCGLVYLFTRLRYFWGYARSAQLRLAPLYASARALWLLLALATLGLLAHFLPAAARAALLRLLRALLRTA
# [3] = target: T4, Cysteinyl leukotriene receptor 1 (Homo sapiens, UniProt Q9Y271); type: cell membranes, CHO-K1, Membrane; settings: cho-k1; note: in other assays of this panel Not Active means under 50% inhibition at 10 µM
# T4 sequence (Q9Y271 whole entry): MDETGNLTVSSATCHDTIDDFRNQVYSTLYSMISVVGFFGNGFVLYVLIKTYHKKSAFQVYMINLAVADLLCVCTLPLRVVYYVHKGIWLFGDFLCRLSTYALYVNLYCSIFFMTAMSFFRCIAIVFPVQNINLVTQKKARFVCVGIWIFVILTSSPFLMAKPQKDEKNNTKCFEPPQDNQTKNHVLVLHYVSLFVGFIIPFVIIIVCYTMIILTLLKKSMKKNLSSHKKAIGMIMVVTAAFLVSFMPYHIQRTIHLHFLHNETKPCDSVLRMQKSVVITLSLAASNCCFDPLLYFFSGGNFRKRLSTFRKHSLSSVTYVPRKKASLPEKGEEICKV
# [4] = target: T5, Amine oxidase [flavin-containing] A (Homo sapiens, UniProt P21397); test: DRUGMATRIX: Monoamine Oxidase MAO-A enzyme inhibition (substrate: Kynuramine); parameters: species or system BTI-TN-5B1-4; settings: bti-tn-5b1-4; Not Active = under 50% inhibition at 10 µM
# T5 sequence (P21397 whole entry): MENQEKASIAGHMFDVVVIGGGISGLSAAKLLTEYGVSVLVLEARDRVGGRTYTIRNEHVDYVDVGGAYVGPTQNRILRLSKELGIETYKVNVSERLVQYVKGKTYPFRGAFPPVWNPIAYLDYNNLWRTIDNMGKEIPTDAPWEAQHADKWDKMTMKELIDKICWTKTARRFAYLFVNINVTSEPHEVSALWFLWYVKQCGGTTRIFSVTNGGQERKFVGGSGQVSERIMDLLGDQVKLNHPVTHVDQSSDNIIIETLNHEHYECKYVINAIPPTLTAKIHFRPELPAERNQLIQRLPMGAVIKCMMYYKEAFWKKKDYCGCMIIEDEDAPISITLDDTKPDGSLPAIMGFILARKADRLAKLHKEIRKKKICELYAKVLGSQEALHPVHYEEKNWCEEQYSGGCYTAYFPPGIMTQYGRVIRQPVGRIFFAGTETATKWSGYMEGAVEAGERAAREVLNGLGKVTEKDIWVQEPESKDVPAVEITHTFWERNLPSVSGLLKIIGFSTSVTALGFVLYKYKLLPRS
# Adenosine receptor A2a = Adenosine receptor A2a (Homo sapiens, UniProt P29274); test: DRUGMATRIX: Adenosine A2A radioligand binding (ligand: […]); type: cell membranes, HEK293, Membrane; settings: hek293; Not Active = under 50% inhibition at 10 µM
# Sequence of Adenosine receptor A2a (P29274 whole entry): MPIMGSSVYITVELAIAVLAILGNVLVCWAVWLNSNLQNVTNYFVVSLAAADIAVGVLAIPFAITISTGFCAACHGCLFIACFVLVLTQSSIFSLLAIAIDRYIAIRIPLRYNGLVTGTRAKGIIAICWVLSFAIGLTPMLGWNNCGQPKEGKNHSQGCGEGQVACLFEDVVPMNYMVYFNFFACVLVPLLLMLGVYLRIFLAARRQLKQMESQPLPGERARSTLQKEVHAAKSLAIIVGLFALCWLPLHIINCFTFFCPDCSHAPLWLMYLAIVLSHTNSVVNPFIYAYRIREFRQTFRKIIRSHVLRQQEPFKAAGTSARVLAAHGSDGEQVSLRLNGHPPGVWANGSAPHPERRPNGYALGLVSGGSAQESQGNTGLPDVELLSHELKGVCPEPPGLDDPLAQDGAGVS
Structure (SMILES),IC50 [1],IC50 (D(4) dopamine receptor; cho-k1),IC50 [2],Ki [2],IC50 (Leukotriene C4 synthase),IC50 [3],IC50 [4],IC50 (Adenosine receptor A2a),IC50 (D(4) dopamine receptor; read-out: IC50) [nM],Ki (D(4) dopamine receptor; read-out: Ki) [nM]
CC[C@@]1(O)C(=O)OCc2c1cc1n(c2=O)Cc2cc3c(CN(C)C)c(O)ccc3nc2-1 [TOPOTECAN],Not Active,Not Active,Not Active,Not Active,Not Active,Not Active,Not Active,Not Active,–,–
C#C[C@]1(O)CC[C@H]2[C@@H]3[C@H](C)CC4=C(CCC(=O)C4)[C@H]3CC[C@@]21C [TIBOLONE],Not Active,Not Active,Not Active,Not Active,Not Active,Not Active,Not Active,Not Active,–,–
Oc1ccc(/C=C/c2cc(O)cc(O)c2)cc1 [RESVERATROL],Not Active,Not Active,Not Active,Not Active,Not Active,Not Active,–,Not Active,–,–
Cc1ccc(Cl)c(Nc2ccccc2C(=O)O)c1Cl [MECLOFENAMIC ACID],Not Active,Not Active,Not Active,Not Active,Not Active,Not Active,Not Active,Not Active,–,–
Cc1ccnc(NS(=O)(=O)c2ccc(N)cc2)n1 [SULFAMERAZINE],Not Active,Not Active,Not Active,Not Active,Not Active,Not Active,Not Active,Not Active,–,–
CCOc1cc(N)c(Cl)cc1C(=O)NCC1CN(Cc2ccc(F)cc2)CCO1 (stereo not given) [MOSAPRIDE],Not Active,Not Active,Not Active,Not Active,Not Active,Not Active,Not Active,Not Active,–,–
C[C@]12CCC(=O)C[C@@H]1CC[C@@H]1[C@@H]2CC[C@]2(C)[C@@H](O)CC[C@@H]12 [STANOLONE],Not Active,Not Active,Not Active,Not Active,Not Active,Not Active,Not Active,Not Active,–,–
C[N+]1(C)[C@@H]2C[C@@H](OC(=O)[C@H](CO)c3ccccc3)C[C@H]1[C@@H]1O[C@@H]12.[Br-] [METHSCOPOLAMINE BROMIDE],Not Active,Not Active,Not Active,Not Active,Not Active,Not Active,Not Active,Not Active,–,–
OC[C@@H](O)[C@@H](O)[C@H](O)[C@H](O)CO [MANNITOL],Not Active,Not Active,Not Active,Not Active,Not Active,Not Active,Not Active,Not Active,–,–
O=C(O)c1cc(/N=N/c2ccc(S(=O)(=O)Nc3ccccn3)cc2)ccc1O [SULFASALAZINE],Not Active,Not Active,Not Active,Not Active,Not Active,Not Active,Not Active,Not Active,–,–
CC1=C(/C=C/C(C)=C/C=C/C(C)=C/C(=O)O)C(C)(C)CCC1 [TRETINOIN],Not Active,Not Active,Not Active,Not Active,Not Active,Not Active,Not Active,Not Active,–,–
CC[C@H](C)C(=O)O[C@H]1CCC=C2C=C[C@H](C)[C@H](CC[C@@H]3C[C@@H](O)CC(=O)O3)[C@H]21 [MEVASTATIN],Not Active,Not Active,Not Active,Not Active,Not Active,Not Active,Not Active,Not Active,–,–
CCN(CC)C(=S)SSC(=S)N(CC)CC,Not Active,–,Not Active,Not Active,Not Active,Not Active,–,Not Active,3150,1100
O=[As][O-].[Na+] [SODIUM ARSENITE],Not Active,Not Active,Not Active,Not Active,Not Active,Not Active,Not Active,Not Active,–,–
CCN(CC)N=O [N-NITROSODIETHYLAMINE],Not Active,Not Active,Not Active,Not Active,Not Active,Not Active,Not Active,Not Active,–,–
Nc1nc(N)c2nc(-c3ccccc3)c(N)nc2n1,Not Active,Not Active,Not Active,Not Active,Not Active,Not Active,Not Active,Not Active,–,–
CCN(CC)CCNC(=O)c1cc(Cl)c(N)cc1OC [METOCLOPRAMIDE],Not Active,Not Active,Not Active,Not Active,Not Active,Not Active,Not Active,Not Active,–,–
Cc1cc2c(s1)Nc1ccccc1N=C2N1CCN(C)CC1 [OLANZAPINE],Not Active,Not Active,–,–,Not Active,Not Active,Not Active,Not Active,–,–
Cc1nnc(NS(=O)(=O)c2ccc(N)cc2)s1 [SULFAMETHIZOLE],Not Active,Not Active,Not Active,Not Active,Not Active,Not Active,Not Active,Not Active,–,–
CC#C[C@]1(O)CC[C@H]2[C@@H]3CCC4=CC(=O)CCC4=C3[C@@H](c3ccc(N(C)C)cc3)C[C@@]21C [MIFEPRISTONE],Not Active,Not Active,Not Active,Not Active,Not Active,Not Active,Not Active,Not Active,–,–
CS(=O)(=O)c1ccc(C2=C(c3ccccc3)C(=O)OC2)cc1 [ROFECOXIB],Not Active,Not Active,Not Active,Not Active,Not Active,Not Active,Not Active,Not Active,–,–
CC1(C)[C@H](C(=O)O)N2C(=O)C[C@H]2S1(=O)=O [SULBACTAM],Not Active,Not Active,Not Active,Not Active,Not Active,Not Active,Not Active,Not Active,–,–
CNCCCC12CCC(c3ccccc31)c1ccccc12 [MAPROTILINE],Not Active,Not Active,–,–,Not Active,Not Active,Not Active,Not Active,–,–
CN(C)CCC=C1c2ccccc2COc2ccccc21 [DOXEPIN],Not Active,Not Active,–,–,Not Active,Not Active,Not Active,Not Active,–,–
